Laboratory results: US20260250278A1, “PHENYL-SUBSTITUTED DIHYDRONAPHTHYRIDINE COMPOUNDS, AND PREPARATION AND USE THEREOF” (SUZHONG PHARMACEUTICAL GROUP CO., LTD., priority 2022, published 2026)

How the values were obtained:
[1] = Pharmacokinetic test of mice (intravenous administration); type: in vivo; settings: mouse, plasma; CD1 mice, intravenous 1 mg/kg
Description: This experiment was intended to evaluate a pharmacokinetic behavior of a compound after intravenous injection or intragastric administration in the mice. Intravenous injection administration: a test compound was prepared into 0.2 mg/mL clear solution, a solvent was 10% ethanol/40% polyethylene glycol 400/50% ultrapure water, and after administration, plasma was collected 0.083 hour, 0.25 hour, 0.5 hour, 1 hour, 2 hours, 4 hours, 8 hours, 24 hours and 48 hours later.
A concentration of the test compound in the plasma was determined by high-performance liquid chromatography-tandem mass spectrometry (LC-MS/MS). Retention time, chromatogram collection and chromatogram integration of compounds and internal standards were treated by software Analyst (Applied Biosystems), and data statistics was treated by software Analyst (Applied Biosystems).
A plasma concentration was treated by a non-atrioventricular model of Winnonlin™ Version 6.1 (Pharsight, Mountain View, CA) pharmacokinetic software, and pharmacokinetic parameters were calculated by a linear logarithmic trapezoid method.

CYP3A4 = CYP3A4 (Homo sapiens, UniProt P08684); experiment: biochemical; type: in vitro ADME
Sequence of CYP3A4 (P08684 2-503 limits assumed): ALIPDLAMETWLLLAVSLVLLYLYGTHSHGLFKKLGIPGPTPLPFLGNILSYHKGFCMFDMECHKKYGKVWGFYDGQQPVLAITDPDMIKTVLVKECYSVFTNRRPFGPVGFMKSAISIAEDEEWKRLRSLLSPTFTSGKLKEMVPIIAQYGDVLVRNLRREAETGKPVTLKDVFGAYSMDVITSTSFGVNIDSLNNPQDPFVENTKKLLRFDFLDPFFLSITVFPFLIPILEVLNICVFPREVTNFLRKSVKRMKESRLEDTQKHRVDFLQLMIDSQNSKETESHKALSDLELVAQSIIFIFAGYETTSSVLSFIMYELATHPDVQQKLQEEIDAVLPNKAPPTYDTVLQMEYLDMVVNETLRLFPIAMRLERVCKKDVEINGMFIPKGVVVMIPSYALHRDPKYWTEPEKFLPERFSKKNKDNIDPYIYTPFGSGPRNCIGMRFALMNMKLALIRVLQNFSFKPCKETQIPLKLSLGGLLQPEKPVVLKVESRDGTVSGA

[2] = molecular target: T1, mineralocorticoid receptor (MR) (Homo sapiens, UniProt P08235); experiment: MR Gal4-LBD luciferase reporter gene assay in HEK293T cells (antagonism of 0.8 nM aldosterone); type: cell-based
T1 construct: expressed in transfected cells
T1 sequence (P08235 726-964 limits assumed): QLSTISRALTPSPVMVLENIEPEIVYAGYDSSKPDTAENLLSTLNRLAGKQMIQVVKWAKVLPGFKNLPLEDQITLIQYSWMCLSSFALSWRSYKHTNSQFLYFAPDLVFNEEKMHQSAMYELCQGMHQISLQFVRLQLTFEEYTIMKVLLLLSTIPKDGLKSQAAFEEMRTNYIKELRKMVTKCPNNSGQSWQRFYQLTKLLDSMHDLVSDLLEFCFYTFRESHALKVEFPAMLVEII
Source text: By the characteristic of chemiluminescence reaction produced by combination of luciferase and substrate, a Gal4 DNA binding domain (DBD) fused plasmid containing a mineralocorticoid receptor (MR) ligand binding domain (LBD) and a firefly luciferase reporter gene plasmid under the control of Gal4 UAS (upstream activation sequence) were transfected into human embryonic kidney cells (HEK293). Changes of […] were judged by a level of firefly luciferase activity.
All compounds were dissolved in DMSO to prepare a 25 mM stock solution, and stored in a refrigerator at −20° C.
• 1) A compound to be tested was subjected to 3-times gradient dilution with the DMSO, with 10 concentration gradients and an initial concentration of 10 mM. • 2) A positive compound (Finerenone) was subjected to 3-times gradient dilution with the DMSO, with 10 concentration gradients and an initial concentration of 1 mM. • 3) 1000× positive control (1 mM, Finerenone) and 1000× negative control (100% DMSO) were prepared. • 4) A compound plate was sealed and shaken for 5 minutes.
• 5) All cells were cultured by ATCC standard operation, and HEK293T was experimented in an exponential growth phase. • 6) A culture medium supernatant was gently discarded. The cells were washed with PBS twice.
(3) The cells were digested with pancreatin digestive juice, the digestion was stopped with a complete culture solution, and then the cells were collected and counted.
(4) 6×10^6 HEK293T cells were inoculated into a 100 mm cell culture dish.
(5) The culture dish inoculated with the cells was cultured in a 5% CO2 incubator at 37° C. for 16 hours overnight.
• 1) Lipofectamine® 3000&P3000 transfection reagents were placed at room temperature. • 2) The Lipofectamine® 3000 reagent was added into an Opti-MEM™ culture medium, and meanwhile, the P3000, the plasmid and the Opti-MEM™ culture medium were added into another tube, taking care not to touch the tube wall. • 3) The mixture was mixed evenly by a pipette, and allowed to stand at room temperature for 5 minutes. • 4) The plasmid was added into the diluted transfection reagent, mixed evenly by a pipette, and allowed to stand at room temperature for 20 minutes. • 5) The transfection reagent mixed with the plasmid was added into a […] cell culture dish. • 6) The culture dish was cultured in a 5% CO2 incubator at 37° C. for 5 hours to 6 hours.
• 1) 25 nL of diluted compound was transferred to a cell culture plate with Echo655. • 2) The cells (referring to step 1.3) were inoculated into a 384 cell culture plate, with 17,000 cells, 25 μL of phenol red-free DMEM culture medium containing 5% CFBS and 0.8 nM Aldosteron per well.
(3) The cell culture plate was cultured in a 5% CO2 incubator at 37° C. for 18 hours to 20 hours overnight.
• 1) A Britelite plus detection reagent was placed at room temperature. 2) The 384 cell plate was placed at room temperature. • 3) 25 μL of Britelite plus detection reagent was added into each well of the cell culture plate. • 4) A luminescence was detected with Envision.
• 1) a firefly luciferase signal was obtained by reading the Luminescence to calculate an inhibition rate; • 2) % inhibition rate=100−[(RLU compound−avgRLU positive control)/(RLU negative control−avgRLU positive control)×100%, wherein the avgRLU positive control was an average value of Luminescences of all positive control wells in the whole plate; the avgRLU negative control was an average value of Luminescences of all negative control wells in the whole plate; and the RLU compound was Luminescence values of compounds to be tested with different concentrations; and • 3) IC50 of the compound was calculated by Graphpad8.0 Drawing software.

[3] = CYP3A4-5M IC50, human CYP3A4, CYP3A4-5M
[4] = CYP3A4-5T IC50, human CYP3A4, CYP3A4-5T

Which AUC(0-t) [1] does the source give for `CCOc1ncc(C)c2c1[C@H](c1ccc(C#N)c3c1OCC3)C(C(N)=O)=C(C)N2` [Example 36, (S)-4-(4-cyano-2,3-dihydrobenzofuran-7-yl)-5-ethoxy-2,8-dimethyl-1,4-dihydro-1,6-naphthyridine-3-formamide] here?
The AUC(0-t) was 206 µg·h/mL.

And the “inhibitory effect on CYP3A4” value (CYP3A4)?
The value was “small inhibitory effect”.

What about the IC50 (CYP3A4; [3]) of the same molecule?
The IC50 was 22.9 µM.

What about the IC50 (CYP3A4; [4]) of the same molecule?
Its IC50 is 15.8 µM.

What about the IC50 [2] of the same molecule?
Its IC50 is 0.0115 µM.

With `CCOc1ncc(C)c2c1[C@H](c1ccc(C#N)c3c1OCO3)C(C(N)=O)=C(C)N2` [Example 62, (S)-4-(7-cyanobenzo[d][1,3]dioxol-4-yl)-5-ethoxy-2,8-dimethyl-1,4-dihydro-1,6-naphthyridine-3-formamide] as the molecule, how does the AUC(0-t) [1] read?
Its AUC(0-t) is 201 µg·h/mL.

What about the IC50 (CYP3A4; [3]) of the same molecule?
The IC50 was 13.7 µM.

And the IC50 (CYP3A4; [4])?
The IC50 was 5.35 µM.

And the IC50 [2]?
The IC50 was 0.0148 µM.
